What was measured:
EGFR = target: T1, EGFR (Homo sapiens, UniProt P00533); test: EGFR Activation-Inhibiting Test (DELFIA, EGF-stimulated A431 cells); type: cell-based; conditions: 60 min compound, EGF stimulation 45 min, read-out: IC50 (inhibition of EGF-stimulated EGFR activation)
T1 construct: endogenous in cells; host or cells: A431 (human epidermoid carcinoma)
Description: Cell seeding and starving: A431 (human epidermoid carcinoma) cells diluted in 10% […] containing DMEM are seeded at 1.3×10^4 cells/well in 96-well plates and incubated overnight. Then the cell culture medium is replaced with 90 μL/well serum-free DMEM medium. The plates are incubated overnight for starvation.
Compound dilution and treatment: the test compounds are diluted in a 3-fold series in FBS-free medium containing 5% DMSO. 10 μL/well of the diluted compound is added into cells, 10 μL/well of 5% DMSO without test compound is added into the control wells. Duplication study is performed for each test point. Then, the plates are incubated at 37° C. for 60 minutes in a 5% CO2 incubator. 10 μL/well of 200 ng/mL EGF (Biosource, PHG0064) is added and incubate the plates at 37° C. for 45 minutes in the 5% CO2 incubator.
Lysate preparation: the medium is removed, and 100 μL/well of 50 mM Tris-Cl, pH 8.0 cell lysis buffer (containing 0.5 M NaCl, 0.2 mM EDTA, 0.1% Triton X-100, 1 μg/mL aprotinin, 0.75 μg/mL leupeptin, 1 μg/mL pepstatin, 1 mM DTT, 500 μM sodium vanadate, and 1 mM PMSF) is added into each well to lyse cells. The protease inhibitors are added right before use. The cell lysate is frozen at −80° C. overnight.
Plate coating and blocking: 100 μL/well of 0.5 μg/ml anti-EGFR antibody (Perkin Elmer, AF231) diluted in PBS is added to a 96-well DELFIA plate (Perkin Elmer, AAAND-0001) and incubated at 25° C. overnight with gentle shaking. The solution is discarded. The plate is washed 3 times with 200 μL/well of DELFIA wash buffer (PBS buffer containing 0.05% Tween-20). 200 μL/well of blocking buffer (PBS containing 0.137 M of NaCl, 0.0027 M of KCl, 0.01 M of Na2PO4.12H2O, 0.0015 M of KH2PO4, pH7.4, and 1% BSA) is added into each well and the plate is incubated at 25° C. for 2 h with gentle shaking.
Binding: the blocking buffer is discarded and the plate is washed with 200 μL/well of DELFIA wash buffer 3 times. 80 μL/well of the sample diluent (20 mM Tris-Cl/pH7.3, 150 mM NaCl, 0.1% of BSA, and 0.05% Tween-20) and 20 μL/well of cell lysate are then added to each well. Incubate the plate at 25° C. for additional 1 h with gentle shaking.
Detection: The plate is washed again with 200 μL/well of DELFIA wash buffer for 3 times. 100 μL/well of […] Eu-PT66 antibody (Perkin Elmer, AD0040) diluted in DELFIA assay buffer (Perkin Elmer, 1244-106) is added and incubate the plate at 25° C. for 1 h with gentle shaking. After washing with 200 μL/well of DELFIA wash buffer 3 times, 100 μL/well of DELFIA enhancement buffer (Perkin Elmer, 4001-0010) is added. Incubate the plate at 25° C. for 30 min with gentle shaking.
Readout: fluorescence signal is measured at 340 nm excitation and 620 nm emission on Victor^3 (PerkinElmer).
Inhibition rates are calculated as follow:
[Fluorescence Readout]Treated is the readout of the wells treated with test compound upon EGF stimulation
[Fluorescence Readout]Untreated is the readout of the wells with neither compound treatment nor EGF stimulation, which is used as cell background signal
[Fluorescence Readout]EGF is the readout of wells with EGF stimulation, but no compound treatment, which is used as maximal signal
IC50 is calculated using XL-Fit 2.0 software.

[1] = test system: HCC827 (human non small cell lung cancer, NSCLC) xenograft; test: In vivo anti-tumor test, HCC827 subcutaneous xenograft; conditions: HCC827 xenograft in nude mice
Description: (§1) Human tumor cell lines: Fadu (human head and neck, pharynx carcinoma, HTB-43), HCC827 (human non small cell lung cancer, NSCLC; CRL-2868), A431 (human epidermoid carcinoma, CRL-2592) cell lines were purchased from ATCC; Fadu, HCC827 and A431 cells were grown in EMEM, RPMI 1640 and DMEM medium plus 10% FBS respectively. These cells were incubated in a humidifier incubator at 37° C. and under 5% CO2.
(§2) Animals: Athymic mice (6-8 weeks) were purchased from Shanghai SLAC laboratory animal CO. LTD. The animals were housed in the SPF environment, 4 animals/cage under standard conditions (12:12 h light/dark, 40-50% relative humidity at 20-25° C.) and were given free access to Co^60 radiated-sterile diet and sterile water.
(§3) Agents: Test compounds were formulated in sterile 0.5% CMC-Na at different concentrations (0.05˜1.0 mg/mL), and then stored at 4° C.
(§4) Subcutaneous implantation of tumor cells and anti-tumor efficacy study: The tumor cells were incubated at 37° C. in a 5% CO2 incubator until they reached approximately 80% confluence. Cells were detached by 0.05% Trypsin-EDTA, centrifuged at 800 rpm, and the cells were suspended in serum free medium. The concentration was adjusted for nude mice implantation. The nude mice were quarantined for several days before implantation, and 3×10^6 FaDu or A431 cells in 0.1 mL medium, or 5×10^6 HCC827 cells in the 0.2 mL medium were subcutaneously injected to the right lateral flank of nude mice.
One to three weeks after inoculation, when average tumor volume reached 100-300 mm^3, the animals were randomized and divided into vehicle and compound treated groups. The mice were orally administrated with either the vehicle, 0.5% CMC-Na, or the test compounds at different dose levels once a day. Tumor volume was measured 2-3 times per week by caliper for length and width, and was calculated using the formula: Tumor volume (TV, mm^3)=width^2×length/2. Animal body weight and behavior were observed during the experiment. Tumor growth inhibition was calculated as follows: TGI (%)=100−(T−T0)/(C−C0)×100%, where T represents mean tumor volume of a treated group on a specific day during the experiment, T0 represents mean tumor volume of the same treated group on the first day of treatment, C represents mean tumor volume of a control group on the specific day during the experiment, and C0 represents mean tumor volume of the same control group on the first day of treatment.
Tumor volume data were expressed as Mean±SD. One-way ANOVA was used for multiple comparisons and Student's t-test was used for comparison with vehicle control. Differences were considered statistically significant at P<0.05.

[2] = test system: Fadu (human head and neck, pharynx carcinoma) xenograft; test: In vivo anti-tumor test, FaDu subcutaneous xenograft; conditions: FaDu xenograft in nude mice
Description: as §1, §2, §3, §4
(§5) One to three weeks after inoculation, when average tumor volume reached 100-300 mm^3, the animals were randomized and divided into vehicle and compound treated groups. The mice were orally administrated with either the vehicle, 0.5% CMC-Na, or the test compounds at different dose levels once a day. Tumor volume was measured 2-3 times per week by caliper for length and width, and was calculated using the formula: Tumor volume (TV, mm^3)=width^2×length/2. Animal body weight and behavior were observed during the experiment. […]
(§6) Tumor volume data were expressed as Mean±SD. […]

[3] = test system: A431 (human epidermoid carcinoma) xenograft; test: In vivo anti-tumor test, A431 subcutaneous xenograft; conditions: A431 xenograft in nude mice
Description: as §1, §2, §3, §4, §5, §6

hERG channels = target: T2, hERG channels (Homo sapiens, UniProt Q12809); test: hERG assay, manual whole-cell patch clamp; type: cell-based; conditions: CHO cells expressing hERG, five concentrations, read-out: IC50 for inhibition of hERG tail currents
T2 construct: expressed in transfected cells; host or cells: CHO
Description: A CHO cell line stably transfected with hERG cDNA and expressing hERG channels was used for the study. Cells were cultured in medium containing:
For the electrophysiological recordings the following solutions were used
Whole-cell recordings were performed using a EPC10 USB(HEKA). The cells were voltage clamped at a holding potential of −80 mV. The hERG current was activated by depolarizing at +20 mV for 2 sec, after which the current was taken back to −50 mV for 2 sec to remove the inactivation and observe the deactivating tail current. The first step at −50 mV was used as a baseline for measuring the tail current peak amplitude.
Compounds were prepared as a 10 mM DMSO stock in a glass vial. The stock solution was mixed vigorously for 10 minute at room temperature. For testing, the compound was diluted in a glass vial using solution; the dilution was prepared no longer than 30 minutes before use. Equal amounts of DMSO (0.1%) were present at final dilution.
After achieving whole-cell configuration, the cells were monitored for 90 sec to assess stability and washed with external solution for 66 sec. The voltage protocol described above was then applied to the cells every 20 sec throughout the whole procedure. Only stable cells with recording parameters above threshold were allowed to enter the drug addition procedure. […]
Data were analyzed using Pulsefit and Origin 7 (Originlab Corporation).

T1 sequence (P00533 25-1210): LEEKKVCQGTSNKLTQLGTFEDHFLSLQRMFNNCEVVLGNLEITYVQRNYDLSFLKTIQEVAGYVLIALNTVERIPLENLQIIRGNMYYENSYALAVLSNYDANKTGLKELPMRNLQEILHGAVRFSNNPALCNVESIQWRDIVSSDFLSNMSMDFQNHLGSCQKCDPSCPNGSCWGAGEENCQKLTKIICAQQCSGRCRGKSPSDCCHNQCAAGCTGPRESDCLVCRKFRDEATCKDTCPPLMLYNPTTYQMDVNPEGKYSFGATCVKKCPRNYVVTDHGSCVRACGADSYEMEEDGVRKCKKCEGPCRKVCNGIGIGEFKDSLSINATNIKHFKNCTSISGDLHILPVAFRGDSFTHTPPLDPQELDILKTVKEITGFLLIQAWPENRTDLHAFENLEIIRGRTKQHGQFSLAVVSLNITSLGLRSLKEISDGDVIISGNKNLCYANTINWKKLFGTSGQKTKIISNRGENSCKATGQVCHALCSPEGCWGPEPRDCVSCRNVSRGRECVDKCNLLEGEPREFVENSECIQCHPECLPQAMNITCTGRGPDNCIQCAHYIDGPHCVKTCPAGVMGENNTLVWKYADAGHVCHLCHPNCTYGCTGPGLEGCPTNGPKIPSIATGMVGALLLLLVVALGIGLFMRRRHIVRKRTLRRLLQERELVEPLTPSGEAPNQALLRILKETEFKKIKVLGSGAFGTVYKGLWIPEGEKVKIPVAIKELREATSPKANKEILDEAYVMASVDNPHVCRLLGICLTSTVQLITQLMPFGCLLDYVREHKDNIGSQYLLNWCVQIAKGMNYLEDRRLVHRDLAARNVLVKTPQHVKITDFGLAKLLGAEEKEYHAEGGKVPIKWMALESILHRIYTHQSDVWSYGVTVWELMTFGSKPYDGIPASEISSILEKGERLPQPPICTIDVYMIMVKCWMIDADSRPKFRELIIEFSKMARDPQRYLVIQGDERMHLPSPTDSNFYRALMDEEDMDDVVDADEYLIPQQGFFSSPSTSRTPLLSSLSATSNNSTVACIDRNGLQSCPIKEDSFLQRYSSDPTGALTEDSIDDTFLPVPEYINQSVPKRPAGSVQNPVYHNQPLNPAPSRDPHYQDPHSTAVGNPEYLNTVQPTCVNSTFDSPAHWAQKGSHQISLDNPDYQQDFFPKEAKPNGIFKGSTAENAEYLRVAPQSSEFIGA
T2 sequence (Q12809 whole entry): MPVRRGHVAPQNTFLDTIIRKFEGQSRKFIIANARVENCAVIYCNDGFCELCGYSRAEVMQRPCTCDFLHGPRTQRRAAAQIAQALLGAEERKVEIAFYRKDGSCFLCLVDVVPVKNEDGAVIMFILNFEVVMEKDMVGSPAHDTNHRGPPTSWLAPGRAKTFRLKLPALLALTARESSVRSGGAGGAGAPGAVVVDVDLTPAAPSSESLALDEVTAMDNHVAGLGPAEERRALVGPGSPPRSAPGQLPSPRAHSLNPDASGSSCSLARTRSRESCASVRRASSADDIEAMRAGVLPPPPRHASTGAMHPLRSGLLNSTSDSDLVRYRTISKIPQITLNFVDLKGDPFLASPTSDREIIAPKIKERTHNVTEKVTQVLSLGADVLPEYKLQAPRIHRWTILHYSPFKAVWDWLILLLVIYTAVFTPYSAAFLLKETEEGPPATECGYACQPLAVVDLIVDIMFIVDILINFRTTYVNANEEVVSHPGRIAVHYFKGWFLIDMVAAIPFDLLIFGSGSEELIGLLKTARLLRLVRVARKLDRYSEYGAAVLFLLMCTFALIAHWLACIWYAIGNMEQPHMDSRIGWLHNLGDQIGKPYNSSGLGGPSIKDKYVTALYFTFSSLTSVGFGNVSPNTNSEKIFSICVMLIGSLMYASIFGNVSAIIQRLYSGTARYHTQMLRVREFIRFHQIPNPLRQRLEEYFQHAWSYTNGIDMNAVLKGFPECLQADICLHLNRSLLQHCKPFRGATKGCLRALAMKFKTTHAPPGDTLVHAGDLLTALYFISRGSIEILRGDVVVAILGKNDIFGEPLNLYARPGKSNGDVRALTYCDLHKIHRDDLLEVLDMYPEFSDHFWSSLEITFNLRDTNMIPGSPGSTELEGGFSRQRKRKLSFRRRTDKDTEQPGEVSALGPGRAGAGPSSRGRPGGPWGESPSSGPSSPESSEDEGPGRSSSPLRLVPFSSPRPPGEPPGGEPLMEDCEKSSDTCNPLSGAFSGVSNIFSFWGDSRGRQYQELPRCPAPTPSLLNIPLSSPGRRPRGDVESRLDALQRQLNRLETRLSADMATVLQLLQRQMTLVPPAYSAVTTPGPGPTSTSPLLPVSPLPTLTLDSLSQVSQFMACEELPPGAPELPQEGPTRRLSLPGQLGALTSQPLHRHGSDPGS

`C#Cc1cccc(Nc2ncnc3cc(OC)c(NC(=O)N4C[C@H]5CCN(C)[C@H]5C4)cc23)c1` [Compound 3, (3aR,6aR)—N-(4-(3-ethynylphenylamino)-7-methoxyquinazolin-6-yl)-1-methyl-hexahydropyrrolo[3,4-b]pyrrole-5(1H)-carboxamide] was tested, and the IC50 (EGFR) was 6 nM, the TGI % ([1]; 0.5 mpk p.o. qd x 21 days) was 59.2% and the TGI % ([1]; 1 mpk p.o. qd x 21 days) was 114.7%. It also gave a TGI % ([1]; 2 mpk p.o. qd x 21 days) of 127.8%, a TGI % ([1]; 5 mpk p.o. qd x 21 days) of 140.8% and a TGI % ([2]; 2 mpk p.o. qd x 21 days) of 46.1%. The TGI % ([2]; 5 mpk p.o. qd x 21 days) was 66.9%, the TGI % ([2]; 10 mpk p.o. qd x 21 days) was 95.2% and the TGI % ([3]; 2 mpk p.o. qd x 21 days) was 21.3%. It also gave a TGI % ([3]; 5 mpk p.o. qd x 21 days) of 62.8%, a TGI % ([3]; 10 mpk p.o. qd x 21 days) of 85.3% and an IC50 (hERG channels) of 9300 ± 1200 nM.
With `COc1cc2ncnc(Nc3ccc(OCc4cccc(F)c4)c(Cl)c3)c2cc1NC(=O)N1C[C@@H]2CCN(C)[C@@H]2C1` [Compound 4, (3aS,6aS)—N-(4-(3-chloro-4-(3-fluorobenzyloxy)phenylamino)-7-methoxyquinazolin-6-yl)-1-methylhexahydropyrrolo[3,4-b]pyrrole-5(1H)-carboxamide] the IC50 (EGFR) was 16 nM.
For `COc1cc2ncnc(Nc3ccc4c(cnn4Cc4cccc(F)c4)c3)c2cc1NC(=O)N1C[C@H]2CCN(C)[C@H]2C1` [Compound 1, (3aR,6aR)—N-(4-(1-(3-fluorobenzyl)-1H-indazol-5-ylamino)-7-methoxyquinazolin-6-yl)-1-methylhexahydropyrrolo[3,4-b]pyrrole-5(1H)-carboxamide], the IC50 (EGFR) was 185 nM.
Work on `COc1cc2ncnc(Nc3ccc4c(cnn4Cc4cccc(F)c4)c3)c2cc1NC(=O)N1C[C@@H]2CCN(C)[C@@H]2C1` [Compound 2, (3aS,6aS)—N-(4-(1-(3-fluorobenzyl)-1H-indazol-5-ylamino)-7-methoxyquinazolin-6-yl)-1-methylhexahydropyrrolo[3,4-b]pyrrole-5(1H)-carboxamide] yielded an IC50 (EGFR) of 439 nM.
`COc1cc2ncnc(Nc3ccc(OCc4cccc(F)c4)c(Cl)c3)c2cc1NC(=O)N1C[C@H]2CCN(C)[C@H]2C1` [Compound 5, (3aR,6aR)—N-(4-(3-chloro-4-(3-fluorobenzyloxy)phenylamino)-7-methoxyquinazolin-6-yl)-1-methylhexahydropyrrolo[3,4-b]pyrrole-5(1H)-carboxamide] gave an IC50 (EGFR) of 44 nM.
`CN1CC[C@H]2CN(C(=O)Nc3ccc4ncnc(Nc5ccc(OCc6cccc(F)c6)c(Cl)c5)c4c3)C[C@H]21` [Compound 6, (3aS,6aS)—N-(4-(3-chloro-4-(3-fluorobenzyloxy)phenylamino)quinazolin-6-yl)-1-methylhexahydropyrrolo[3,4-b]pyrrole-5(1H)-carboxamide] gave an IC50 (EGFR) of 210 nM.
With `CN1CC[C@@H]2CN(C(=O)Nc3ccc4ncnc(Nc5ccc(OCc6cccc(F)c6)c(Cl)c5)c4c3)C[C@@H]21` [Compound 7] the IC50 (EGFR) was 241 nM.
